This note sets out measurements from US12522603B2, “Inhibitors of gas for treating autoinflammatory diseases and cancer metastasis” (The Rockefeller University, priority 2019, dated 2026).

The target in one assay is Human cGAS (Homo sapiens (Human), UniProt Q8N884). Briefly: cGAS enzyme assay using TR-FRET. As to conditions: Table 5; human cGAS 5 nmol/L, 90 bp dsDNA 100 nmol/L, TR-FRET cGAMP detection; read-out: hcGAS enzyme assay. It counts as biochemical.
The target in the next assay is h-cGAS (Homo sapiens (Human), UniProt Q8N884). Briefly: RapidFire mass spectroscopy assay (cGAMP formation). It counts as biochemical.
The next assay concerns THP1 cells. Briefly: Cell-based TR-FRET cGAMP assay in THP1 cells. The arrangement: species or system human. As to conditions: Table 6, PMA-differentiated THP1 cells, 90-bp dsDNA transfection 24 h. A general note: In TR-FRET formats the signal depends on donor and acceptor labels being close together.
The subject of another assay is THP1-Dual cells. The assay is described as follows: Cell-based Lucia luciferase assay in THP1-Dual cells. Conditions: Homo sapiens, Table 4, 100-bp dsDNA transfection 24 h, secreted luciferase reporting interferon-induced gene expression.
Setting [1] is: Table 2, full-length h-cGAS 100 nM, dsDNA 25 nM, ATP and GTP 100 μM, 7 h RT.
Where [2] appears, read: Table 3, compounds from related application PCT/US2019/016673, same RapidFire assay.

pIC50: −log10 of the molar value. Bounds are passed on as bounds.

Human cGAS, sequence (Q8N884 whole entry): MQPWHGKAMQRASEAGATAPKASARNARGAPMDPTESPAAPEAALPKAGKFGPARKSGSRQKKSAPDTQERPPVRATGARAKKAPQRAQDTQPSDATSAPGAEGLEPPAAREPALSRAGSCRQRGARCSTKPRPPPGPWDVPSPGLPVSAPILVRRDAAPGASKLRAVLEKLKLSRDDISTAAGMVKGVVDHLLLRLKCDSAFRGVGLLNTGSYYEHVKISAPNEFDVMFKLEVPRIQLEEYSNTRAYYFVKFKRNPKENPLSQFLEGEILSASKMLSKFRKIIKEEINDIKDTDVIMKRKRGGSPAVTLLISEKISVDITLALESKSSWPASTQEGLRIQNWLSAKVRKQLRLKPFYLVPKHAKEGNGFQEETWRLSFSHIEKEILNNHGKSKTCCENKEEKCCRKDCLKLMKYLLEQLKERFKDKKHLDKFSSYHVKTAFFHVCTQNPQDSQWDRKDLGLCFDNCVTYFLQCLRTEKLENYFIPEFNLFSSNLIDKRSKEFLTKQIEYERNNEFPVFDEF
h-cGAS, sequence (Q8N884 whole entry): as above

On to `Cc1noc(-c2cc(Cl)c(F)c3nn4c(c23)CN(C(=O)CO)CC4)n1` [Example 71, 1-[8-Chloro-7-fluoro-10-(3-methyl-1,2,4-oxadiazol-5-yl)-3,4-dihydropyrazino[1,2-b]indazol-2(1H)-yl]-2-hydroxyethan-1-one], for which the pIC50 on Human cGAS is 5.85.

Take `COc1nc2c3c([nH]c2c(Cl)c1Cl)CCN(C(=O)CO)C3` [Example 1, 1-(3,4-Dichloro-2-methoxy-5,6,7,9-tetrahydro-8H-pyrrolo[3,2-b:4,5-c′]dipyridin-8-yl)-2-hydroxyethan-1-one]: the pIC50 against h-cGAS (setting [1]) was 7.21; on Human cGAS, 6.72; with THP1 cells (Homo sapiens, THP-1), 5.60; in the assay on THP1-Dual cells, 4.97. Consider `COCC(=O)N1CCn2nc3c(Cl)c(Cl)cc(-c4ccn(C)n4)c3c2C1` [Example 68, 1-[7,8-Dichloro-10-(1-methyl-1H-pyrazol-3-yl)-3,4-dihydropyrazino[1,2-b]indazol-2(1H)-yl]-2-methoxyethan-1-one], for which the pIC50 at Human cGAS is 6.62; with THP1 cells (Homo sapiens, THP-1) it was 6.48. In the case of `CCOc1nc2c3c([nH]c2c(Cl)c1Cl)CCN(C(=O)CO)C3` [Example 77, 1-(3,4-Dichloro-2-ethoxy-5,6,7,9-tetrahydro-8H-pyrrolo[3,2-b:4,5-c′]dipyridin-8-yl)-2-hydroxyethan-1-one], the pIC50 at Human cGAS was 5.52. Same read-out and setting: as for `O=C(CO)N1CCc2[nH]c3c(F)c(Cl)c(OC(F)F)nc3c2C1` [Example 82, 1-[3-Chloro-2-(difluoromethoxy)-4-fluoro-5,6,7,9-tetrahydro-8H-pyrrolo[3,2-b:4,5-c′]dipyridin-8-yl]-2-hydroxyethan-1-one], the figure is 4.82. Regarding `COCC(=O)N1CCc2[nH]c3cc(Cl)ncc3c2C1` [Example 2, 1-(7-Chloro-1,3,4,5-tetrahydro-2H-pyrrolo[3,2-c:4,5-c′]dipyridin-2-yl)-2-methoxyethan-1-one], the values for the pIC50 against h-cGAS (setting [1]) and on Human cGAS were 5.62 and less than 4.52, respectively. For `O=C(CO)N1CCn2nc3c(Cl)c(Cl)ccc3c2C1` [Example 4, 1-(7,8-Dichloro-3,4-dihydropyrazino[1,2-b]indazol-2(1H)-yl)-2-hydroxyethan-1-one], in that order: 5.84 and 4.68.

`O=C(CO)N1CCc2[nH]c3c(F)c(Cl)cc(N4CCS(=O)(=O)C4)c3c2C1` [TDI-008867, reference compound]: the pIC50 against h-cGAS (setting [2]) was 5.16; with THP1-Dual cells it was less than 5.00. Take `O=C(CO)N1CCc2[nH]c3c(Cl)c(Cl)c(OC(F)F)nc3c2C1` [Example 81, 1-[3,4-Dichloro-2-(difluoromethoxy)-5,6,7,9-tetrahydro-8H-pyrrolo[3,2-b:4,5-c′]dipyridin-8-yl]-2-hydroxyethan-1-one]: on Human cGAS, the pIC50 is 5.62. On to `Cn1ccc(-c2nc(Cl)c(Cl)c3[nH]c4c(c23)CN(C(=O)CO)CC4)n1` [Example 25, 1-[6,7-Dichloro-9-(1-methyl-1H-pyrazol-3-yl)-1,3,4,5-tetrahydro-2H-pyrrolo[3,2-c:4,5-c′]dipyridin-2-yl]-2-hydroxyethan-1-one], for which the pIC50 on Human cGAS was 7.02. Turning to `COc1nc2c3c([nH]c2c(Cl)c1Cl)C(C)(C)CN(C(=O)CO)C3` [Example 76, 1-(3,4-Dichloro-2-methoxy-6,6-dimethyl-5,6,7,9-tetrahydro-8H-pyrrolo[3,2-b:4,5-c′]dipyridin-8-yl)-2-hydroxyethan-1-one], the pIC50 at Human cGAS is 6.07. Same read-out and setting: as for `Cn1ccc(-c2nc(Cl)c(Cl)c3c2c2c(n3C)CCN(C(=O)CO)C2)n1` [Example 34, 1-[6,7-Dichloro-5-methyl-9-(1-methyl-1H-pyrazol-3-yl)-1,3,4,5-tetrahydro-2H-pyrrolo[3,2-c:4,5-c′]dipyridin-2-yl]-2-hydroxyethan-1-one], the figure is 6.82. Take `COCC(=O)N1CCc2[nH]c3c(Cl)cnc(-c4ccn(C)n4)c3c2C1` [Example 73, 1-[6-Chloro-9-(1-methyl-1H-pyrazol-3-yl)-1,3,4,5-tetrahydro-2H-pyrrolo[3,2-c:4,5-c′]dipyridin-2-yl]-2-methoxyethan-1-one]: the pIC50 on Human cGAS is 6.06.

In the case of `Cn1ccc(-c2cc(Cl)c(F)c3nn4c(c23)CN(C(=O)CO)CC4)n1` [Example 64, 1-[8-Chloro-7-fluoro-10-(1-methyl-1H-pyrazol-3-yl)-3,4-dihydropyrazino[1,2-b]indazol-2(1H)-yl]-2-hydroxyethan-1-one], the pIC50 at Human cGAS is 6.74.

Take `CCOc1nc2c3c([nH]c2c(F)c1Cl)CCN(C(=O)CO)C3` [Example 78, 1-(3-Chloro-2-ethoxy-4-fluoro-5,6,7,9-tetrahydro-8H-pyrrolo[3,2-b:4,5-c′]dipyridin-8-yl)-2-hydroxyethan-1-one]: at Human cGAS, the pIC50 was 5.43.

Consider `COCC(=O)N1CCc2nn3c(Cl)c(Cl)ccc3c2C1` [Example 5, 1-(7,8-Dichloro-3,4-dihydropyrazolo[1,5-a:4,3-c′]dipyridin-2(1H)-yl)-2-methoxyethan-1-one], for which the pIC50 against h-cGAS (setting [1]) was 4.66; on Human cGAS it was less than 4.52. In the case of `Cc1cc(-c2ncn(C)n2)c2c3c([nH]c2c1Cl)CCN(C(=O)CO)C3` [TDI-008989, reference compound], the pIC50 at h-cGAS (setting [2]) was 7.34; in the assay on THP1-Dual cells, 5.17. With `O=C(CO)N1CCc2[nH]c3c(Cl)c(Cl)c(OCC4CC4)nc3c2C1` [Example 79, 1-[3,4-Dichloro-2-(cyclopropylmethoxy)-5,6,7,9-tetrahydro-8H-pyrrolo[3,2-b:4,5-c′]dipyridin-8-yl]-2-hydroxyethan-1-one], the pIC50 on Human cGAS is 5.23. For the compound `COCC(=O)N1CCn2nc3c(Cl)c(Cl)ccc3c2C1` [Example 3, 1-(7,8-Dichloro-3,4-dihydropyrazino[1,2-b]indazol-2(1H)-yl)-2-methoxyethan-1-one], the pIC50 on h-cGAS (setting [1]) was 5.61. Regarding `Cc1nnc(-c2cc(Cl)c(F)c3nn4c(c23)CN(C(=O)CO)CC4)o1` [Example 70, 1-[8-Chloro-7-fluoro-10-(5-methyl-1,3,4-oxadiazol-2-yl)-3,4-dihydropyrazino[1,2-b]indazol-2(1H)-yl]-2-hydroxyethan-1-one], at Human cGAS, the pIC50 is 5.12. On the same count and under the same terms, as for `Cn1ccc(-c2ccc(Cl)c3nn4c(c23)CN(C(=O)CO)CC4)n1` [Example 69, 1-[7-Chloro-10-(1-methyl-1H-pyrazol-3-yl)-3,4-dihydropyrazino[1,2-b]indazol-2(1H)-yl]-2-hydroxyethan-1-one], the figure is 6.55; as for `Cn1ccc(-c2ncc(Cl)c3[nH]c4c(c23)CN(C(=O)CO)CC4)n1` [Example 72, 1-[6-Chloro-9-(1-methyl-1H-pyrazol-3-yl)-1,3,4,5-tetrahydro-2H-pyrrolo[3,2-c:4,5-c′]dipyridin-2-yl]-2-hydroxyethan-1-one], 6.60. Turning to `O=C(CO)N1CCc2nn3c(Cl)c(Cl)ccc3c2C1` [Example 6, 1-(7,8-Dichloro-3,4-dihydropyrazolo[1,5-a:4,3-c′]dipyridin-2(1H)-yl)-2-hydroxyethan-1-one], at h-cGAS (setting [1]), the pIC50 was 4.68. Consider `O=C(CO)N1CCc2[nH]c3c(Cl)c(Cl)cc(-c4ccc(NC(=O)C(F)(F)F)cc4)c3c2C1` [TDI-008458, reference compound], for which the pIC50 against h-cGAS (setting [2]) was 6.20. Turning to `COc1nc2c3c([nH]c2c(F)c1Cl)CCN(C(=O)CO)C3` [Example 75, 1-(3-Chloro-4-fluoro-2-methoxy-5,6,7,9-tetrahydro-8H-pyrrolo[3,2-b:4,5-c′]dipyridin-8-yl)-2-hydroxyethan-1-one], the pIC50 at Human cGAS was 6.26. In turn, “1-[7,8-Dichloro-10-(1-methyl-1H-pyrazol-3-yl)-3,4-dihydropyrazino[1,2-b]indazol-2(1H)-yl]-2-hydroxyethan-1-one [Example 67]” had a pIC50 in the assay on THP1 cells of 6.85. `Cn1ccc(-c2ncc(Cl)c3c2c2c(n3C)CCN(C(=O)CO)C2)n1` [Example 74, 1-[6-Chloro-5-methyl-9-(1-methyl-1H-pyrazol-3-yl)-1,3,4,5-tetrahydro-2H-pyrrolo[3,2-c:4,5-c′]dipyridin-2-yl]-2-hydroxyethan-1-one]: at Human cGAS, the pIC50 is 6.54. With `O=C(CO)N1CCc2[nH]c3c(F)c(Cl)c(OCC4CC4)nc3c2C1` [Example 80, 1-[3-Chloro-2-(cyclopropylmethoxy)-4-fluoro-5,6,7,9-tetrahydro-8H-pyrrolo[3,2-b:4,5-c′]dipyridin-8-yl]-2-hydroxyethan-1-one], the pIC50 at Human cGAS was 5.30. At h-cGAS (setting [2]), `O=C(CO)N1CCc2[nH]c3c(Cl)c(Cl)cc(-c4cn[nH]c4)c3c2C1` [TDI-007445, reference compound] had a pIC50 of 7.56. Take `COCC(=O)N1CCc2[nH]c3c(Cl)c(Cl)nc(-c4ccn(C)n4)c3c2C1` [Example 30, 1-[6,7-Dichloro-9-(1-methyl-1H-pyrazol-3-yl)-1,3,4,5-tetrahydro-2H-pyrrolo[3,2-c:4,5-c′]dipyridin-2-yl]-2-methoxyethan-1-one]: the pIC50 at Human cGAS was 6.68. In the case of `N#Cc1ccc2c3c([nH]c2c1C#N)CCN(C(=O)CO)C3` [TDI-006932, reference compound], the pIC50 on h-cGAS (setting [2]) was less than 4.60.
